The text below walks through data of BindingDB's records for doi:10.1021/acs.jmedchem.8b01906 (Siteone Therapeutics, 2019).

The experiment in a line: Binding affinity to human recombinant Nav1.7 by radioligand binding assay.

Regarding `Cc1nn([C@@H]2CCN([C@H](C)c3cc(Cl)cc(Cl)c3)C2)c2cc(F)c(C(=O)NS(=O)(=O)C3CC3)cc12`, the Kd came to 22 nM. For `CS(=O)(=O)NC(=O)c1cc(C2CC2)c(OCC2CCN(Cc3cc(C(F)(F)F)ccc3Cl)CC2)cc1F` [US9546164, 580], the Kd amounted to 3.5 nM.

One may read the Kd as the free concentration of one partner at which half of the binding sites on the other are occupied at equilibrium, for simple one-to-one binding.
